Reference: US20210198317A1, “REACTIVE OXYGEN PRODUCTION INHIBITOR AND/OR SCAVENGING PROMOTER” (NATIONAL UNIVERSITY CORPORATION OKAYAMA UNIVERSITY, priority 2018, published 2021)
Entries after “also recorded” stand apart in the source; their conditions may differ.

B1: HRG: Histidine-rich glycoprotein, plasma protein of 507 amino acids (SEQ ID NO: 1), generated from human plasma as a starting material (protein, listed as Homo sapiens)
chain: VSPTDCSAVEPEAEKALDLINKRRRDGYLFQLLRIADAHLDRVENTTVYYLVLDVQESDCSVLSRKYWNDCEPPDSRRPSEIVIGQCKVIATRHSHESQDLRVIDFNCTTSSVSSALANTKDSPVLIDFFEDTERYRKQANKALEKYKEENDDFASFRVDRIERVARVRGGEGTGYFVDFSVRNCPRHHFPRHPNVFGFCRADLFYDVEALDLESPKNLVINCEVFDPQEHENINGVPPHLGHPFHWGGHERSSTTKPPFKPHGSRDHHHPHKPHEHGPPPPPDERDHSHGPPLPQGPPPLLPMSCSSCQHATFGTNGAQRHSHNNNSSDLHPHKHHSHEQHPHGHHPHAHHPHEHDTHRQHPHGHHPHGHHPHGHHPHGHHPHGHHPHCHDFQDYGPCDPPPHNQGHCCHGHGPPPGHLRRRGPGKGPRPFHCRQIGSVYRLPPLRKGEVLPLPEANFPSFPLPHHKHPLKPDNQPFPQSVSESCPGKFKSGFPQVSMFFTHTFPK

Legend:
[1] = OxiSelect HORAC Activity Assay Kit: antioxidant activity against hydroxy radicals (cell-free, Fenton's reagent); type: biochemical; conditions: for antioxidant action against hydroxy radicals (fluorescence intensity): every 5 minutes for 60 minutes; for Antioxidant Activity Against Hydroxy Radicals (NetAUC): AUCsample minus AUCblank, 60 minutes
Protocol: Antioxidant activity against hydroxy radicals was measured with OxiSelect™ HORAC Activity Assay Kit (Cell Biolabs, San Diego, Calif.) in accordance with the specifications. A fluorescent probe solution was added to a sample solution, the mixture was incubated at 37° C. for 30 minutes, and a hydroxy radical initiator (H2O2) and Fenton's reagent were added, followed by the measurement of a fluorescence intensity (Ex/Em=485 nm/538 nm) based on the oxidation of the fluorescent probe by hydroxy radicals via hydrogen atom transfer (HAT). In the presence of hydroxy radicals, the fluorescence of the fluorescent probe is quenched, and the quenching is inhibited when antioxidant activity is present. As the sample solution, 0.01 μM to 1 μM HRG solutions, or 50 μM to 100 μM GA solutions were used. A. For each of the 50 μM to 100 μM gallic acid (GA) sample solutions, their fluorescence intensities (Ex/Em=485 nm/538 nm) were measured every 5 minutes for 60 minutes in accordance with the above-mentioned measurement method. The fluorescence intensities of GA and a blank were plotted on the vertical axis, and the measurement times were plotted on the horizontal axis. […] B. For each of the 0 μM to 1 μM HRG sample solutions, their fluorescence intensities (Ex/Em=485 nm/538 nm) were measured every 5 minutes for 60 minutes in accordance with the above-mentioned measurement method. The fluorescence intensities of HRG and a blank were plotted on the vertical axis, and the measurement times were plotted on the horizontal axis. […] The difference between the area under the curve of the fluorescence intensity of GA or HRG (AUCsample) and the area under the curve of the blank (AUCblank) was measured every 5 minutes for 60 minutes after the initiation of reaction, and NetAUC was calculated. […] In this Example, the histidine-rich peptide (SEQ ID NO: 10) was investigated for its antioxidant action against hydroxy radicals by the same technique as that of Example 1. A control peptide (SEQ ID NO: 11) was similarly investigated. A. The fluorescent probe solution was added to each solution of HRG (1 μM), the histidine-rich peptide (6 μM), or the control peptide (6 μM), and antioxidant activity against hydroxy radicals was measured by the same technique as that of Example 1. […] B. The fluorescent probe solution was added to histidine-rich peptide solutions (0.1 μM to 10 μM), and the resultant mixtures were measured for their antioxidant activity against hydroxy radicals by the same technique as that of Example 1. […] The difference between the area under the curve of the fluorescence intensity of the histidine-rich peptide or HRG (AUCsample) and the area under the curve of the blank (AUCblank) was measured every 5 minutes for 60 minutes after the initiation of reaction to calculate NetAUC.

[2] = OxiSelect ORAC Activity Assay Kit: antioxidant activity against peroxy radicals (AAPH); type: biochemical; conditions: for antioxidant action against peroxy radicals (fluorescence intensity): every 5 minutes for 60 minutes; for Antioxidant Activity Against Peroxy Radicals (NetAUC): AUCsample minus AUCblank, 60 minutes
Protocol: In this Example, HRG was investigated for its antioxidant action against peroxy radicals. As a positive control, Trolox was used. Antioxidant activity against peroxy radicals was measured with OxiSelect™ ORAC Activity Assay Kit (Cell Biolabs, San Diego, Calif.) in accordance with the specifications. The fluorescent probe solution was added to a sample solution, the mixture was incubated at 37° C. for 30 minutes, and added with 2,2′-azobis-(2-methylpropionamidine) dihydrochloride (AAPH), followed by immediate measurement of fluorescence intensity (Ex/Em=485 nm/538 nm). In the presence of peroxy radicals, the fluorescence of the fluorescent probe is quenched, and the quenching is inhibited when antioxidant activity is present. A. For each of 0 μM to 6.25 μM Trolox sample solutions, their fluorescence intensities (Ex/Em=485 nm/538 nm) were measured every 5 minutes for 60 minutes in accordance with the above-mentioned measurement method. […] B. For each of 0 μM to 1 μM HRG sample solutions, their fluorescence intensity (Ex/Em=485 nm/538 nm) were measured every 5 minutes for 60 minutes in accordance with the above-mentioned measurement method. […] The difference between the area under the curve of the fluorescence intensity of Trolox or HRG (AUCsample) and the area under the curve of the blank (AUCblank) was measured every 5 minutes for 60 minutes after the initiation of reaction to calculate NetAUC. […] In this Example, the histidine-rich peptide was investigated for its antioxidant action against peroxy radicals in the same manner as in Example 4. A. The fluorescent probe solution was added to each solution of HRG (1 μM), the histidine-rich peptide (6 μM), or the control peptide (6 μM), and antioxidant activity against peroxy radicals was measured by the same technique as that of Example 4. […] B. The fluorescent probe solution was added to histidine-rich peptide solutions (0.1 μM to 10 μM), and antioxidant activity against peroxy radicals was measured by the same technique as that of Example 4. […] The difference between the area under the curve of the fluorescence intensity of the histidine-rich peptide or HRG (AUCsample) and the area under the curve of the blank (AUCblank) was measured every 5 minutes for 60 minutes after the initiation of reaction to calculate NetAUC.

[3] = Calorimetry (MicroCal iTC200) metal ion-binding property, trivalent iron ions; conditions: FIG. 4A, 5A, 6A
Protocol: (§1) In this Example, in order to investigate the binding properties of HRG to metal ions serving as essential factors in Fenton' s reaction, an experiment was performed using calorimetry. MicroCal iTC200 was used as a calorimeter, and binding properties between various metals (iron, copper, cobalt, zinc, and nickel) and samples were measured in accordance with the specifications.

[4] = Calorimetry (MicroCal iTC200) metal ion-binding property, divalent metal ions; conditions: for binding to divalent metal ions: iron, copper, cobalt, zinc, nickel, FIG. 4A-6B
Protocol: as §1

[5] = DetectX Superoxide Dismutase (SOD) Colorimetric Activity Kit: antioxidant action against superoxide (xanthine/xanthine oxidase); type: biochemical; conditions: 0.01 μM to 1 μM; room temperature 20 minutes; absorbance 450 nm; FIG. 9A-B
Description: In this Reference Example, the antioxidant action of HRG against superoxide was investigated through use of DetectX Superoxide Dismutase (SOD) Colorimetric Activity Kit (Arbor Assays, Ann Arbor, Mich.). HRG used was plasma-derived HRG generated by the method described in Example 1. Superoxide anion (O^2−) is generated by a xanthine/xanthine oxidase (XOD) system, and is detected through use of a chromogen solution. Superoxide dismutase (SOD) is a metalloenzyme that catalyzes the conversion of O^2− into an oxygen molecule and hydrogen peroxide. The presence of SOD decreases the O^2− concentration to decrease a dye signal.
In accordance with the specifications, xanthine oxidase, and a substrate were added to 0.01 μM to 1 μM HRG solutions, and the mixtures were incubated at room temperature for 20 minutes. After that, the reaction solutions were each measured for its absorbance at a wavelength of 450 nm. As a control, measurement was similarly performed for SOD.

[6] = OxiSelect Catalase Activity Assay Kit: catalase-like activity; type: biochemical; conditions: 0.01 μM to 1 μM; FIG. 10A-B
Protocol: In this Reference Example, whether HRG had catalase-like activity was investigated through use of OxiSelect™ Catalase Activity Assay Kit (Cell Biolabs, San Diego, Calif.). HRG used was plasma-derived HRG generated by the method described in Example 1. A prescribed amount of hydrogen peroxide was allowed to react with 0.01 μM to 1 μM HRG. Next, the remaining hydrogen peroxide was incubated in the presence of HRP with a probe (colorimetric measurement: DHBS+AAP; and fluorescence measurement: ADHP (10-Acetyl-3,7-dihydroxyphenoxazine)) at 37° C. for 30 minutes, and the resulting fluorescence intensity (Ex/Em=544 nm/590 nm) was measured. As a control, measurement was similarly performed for catalase.

[7] = overall conclusion from the results

Row | binding to trivalent iron ions [3] | Molecule | antioxidant activity against hydroxy radicals ([1]; 6 μM, FIG. 3A) | binding to divalent metal ions [4] | antioxidant activity against peroxy radicals ([2]; 6 μM, FIG. 8A) | Antioxidant Activity Against Hydroxy Radicals (NetAUC) ([1]; FIG. 3C) | antioxidant activity against hydroxy radicals [1, 7] | Antioxidant Activity Against Peroxy Radicals (NetAUC) ([2]; FIG. 8C) | also measured
1 | – | O=C(O)c1cc(O)c(O)c(O)c1 [GA, gallic acid, reference compound] | – | – | – | – | – | – | antioxidant action against hydroxy radicals (fluorescence intensity) ([1]; 50 μM to 100 μM sample solutions, FIG. 2A): antioxidant action against hydroxy radicals was recognized in a manner dependent on the concentration of GA
2 | – | Cc1c(C)c2c(c(C)c1O)CCC(C)(C(=O)O)O2 (stereo not drawn) [Trolox, reference compound] | – | – | – | – | – | – | antioxidant action against peroxy radicals (fluorescence intensity) ([2]; 0 μM to 6.25 μM sample solutions, FIG. 7A): antioxidant action against peroxy radicals was recognized in a manner dependent on the concentration of Trolox
3 | does not bind to trivalent iron ions | GHHPHGHHPH [histidine-rich peptide] | potent antioxidant actions | bind to divalent metal ions (iron, copper, cobalt, zinc, and nickel) | an antioxidant action, which was slightly weaker | potent antioxidant action against hydroxy radicals | potent antioxidant activity against hydroxy radicals | weak as compared to HRG | antioxidant activity against hydroxy radicals ([1]; 0.1 μM to 10 μM, FIG. 3B): potent antioxidant activity in a concentration-dependent manner; antioxidant activity against peroxy radicals ([2]; 0.1 μM to 10 μM, FIG. 8B): antioxidant activity in a slightly concentration-dependent manner
4 | did not bind to trivalent iron ions | B1 | – | bound to divalent metal ions (iron, copper, cobalt, zinc, and nickel) | – | potent antioxidant action against hydroxy radicals | potent antioxidant activity against hydroxy radicals | had an antioxidant action against peroxy radicals | antioxidant action against hydroxy radicals (fluorescence intensity) ([1]; 0 μM to 1 μM sample solutions, FIG. 2B): antioxidant action against hydroxy radicals was recognized in a manner dependent on the concentration of HRG; antioxidant activity against hydroxy radicals ([1]; 1 μM, FIG. 3A): potent antioxidant actions; Antioxidant Activity Against Hydroxy Radicals (NetAUC) ([1]; various concentrations, FIG. 2C): potent antioxidant action against hydroxy radicals; number of divalent metal ions bound per molecule ([4]; FIG. 4A): a large number of divalent metal ions bind to one molecule of HRG; scavenging activity / antioxidant action against superoxide [5]: no scavenging activity against superoxide; also recorded: hardly showed an antioxidant action against superoxide; also recorded: no antioxidant action against superoxide; catalase-like activity [6]: no catalase-like activity; antioxidant action against peroxy radicals (fluorescence intensity) ([2]; 0 μM to 1 μM sample solutions, FIG. 7B): antioxidant action against peroxy radicals was recognized in a manner dependent on the concentration of HRG; antioxidant activity against peroxy radicals ([2]; 1 μM, FIG. 8A): potent antioxidant action; Antioxidant Activity Against Peroxy Radicals (NetAUC) ([2]; various concentrations, FIG. 7C): has an antioxidant action against peroxy radicals; antioxidant activity against peroxy radicals [2, 7]: showed an antioxidant activity against peroxy radicals

Row | Molecule | binding to trivalent iron ions [3] | antioxidant activity against hydroxy radicals ([1]; 6 μM, FIG. 3A) | binding to divalent metal ions [4] | antioxidant activity against peroxy radicals ([2]; 6 μM, FIG. 8A) | Antioxidant Activity Against Hydroxy Radicals (NetAUC) ([1]; FIG. 3C) | antioxidant activity against hydroxy radicals [1, 7] | Antioxidant Activity Against Peroxy Radicals (NetAUC) ([2]; FIG. 8C) | also measured
5 | GAAPAGAAPA (Standard peptide) [control peptide, reference compound] | did not bind to any of the various metal ions | no antioxidant action | did not bind to any of the various metal ions | no antioxidant action | – | – | – | –
